Assay results published in the Kinase Knowledgebase extract (Sharma et al. 2016).

Experiments:
PIK3CG (human) = PIK3CG (human) (UniProt P48736); assay: Inhibition of PIK3CG Kinase Activity
PIK3CA (human) = PIK3CA (human) (UniProt P42336); assay: Inhibition of PIK3CA Kinase Activity
Chain of PIK3CA (human) (P42336 whole entry, looked up): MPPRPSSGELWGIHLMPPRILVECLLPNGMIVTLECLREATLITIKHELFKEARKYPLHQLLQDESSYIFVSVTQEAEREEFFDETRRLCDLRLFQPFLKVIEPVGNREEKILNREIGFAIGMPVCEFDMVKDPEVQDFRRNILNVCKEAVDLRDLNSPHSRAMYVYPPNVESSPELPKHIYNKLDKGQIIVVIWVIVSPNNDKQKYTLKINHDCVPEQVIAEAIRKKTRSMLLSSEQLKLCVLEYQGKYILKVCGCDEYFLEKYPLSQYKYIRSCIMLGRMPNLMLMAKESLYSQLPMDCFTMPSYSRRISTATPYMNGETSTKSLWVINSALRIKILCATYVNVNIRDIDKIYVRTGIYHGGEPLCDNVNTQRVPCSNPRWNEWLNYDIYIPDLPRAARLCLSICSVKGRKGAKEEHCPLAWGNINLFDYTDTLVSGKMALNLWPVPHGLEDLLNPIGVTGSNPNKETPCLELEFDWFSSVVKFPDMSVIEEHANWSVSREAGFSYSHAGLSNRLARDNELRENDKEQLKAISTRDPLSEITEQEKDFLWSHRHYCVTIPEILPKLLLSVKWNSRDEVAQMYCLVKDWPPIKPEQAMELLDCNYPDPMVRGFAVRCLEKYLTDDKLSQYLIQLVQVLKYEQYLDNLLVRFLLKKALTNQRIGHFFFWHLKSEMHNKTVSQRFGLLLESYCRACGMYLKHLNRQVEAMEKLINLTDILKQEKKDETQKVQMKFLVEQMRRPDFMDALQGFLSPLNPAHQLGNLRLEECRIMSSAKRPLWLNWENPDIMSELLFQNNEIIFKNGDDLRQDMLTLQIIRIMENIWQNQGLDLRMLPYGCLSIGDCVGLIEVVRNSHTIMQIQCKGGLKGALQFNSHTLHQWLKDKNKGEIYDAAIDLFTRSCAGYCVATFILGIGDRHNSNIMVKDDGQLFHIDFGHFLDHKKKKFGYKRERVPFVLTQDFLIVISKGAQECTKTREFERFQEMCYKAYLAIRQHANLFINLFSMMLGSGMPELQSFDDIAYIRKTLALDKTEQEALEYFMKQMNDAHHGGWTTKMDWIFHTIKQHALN

Chain of PIK3CG (human) (P48736 whole entry, looked up): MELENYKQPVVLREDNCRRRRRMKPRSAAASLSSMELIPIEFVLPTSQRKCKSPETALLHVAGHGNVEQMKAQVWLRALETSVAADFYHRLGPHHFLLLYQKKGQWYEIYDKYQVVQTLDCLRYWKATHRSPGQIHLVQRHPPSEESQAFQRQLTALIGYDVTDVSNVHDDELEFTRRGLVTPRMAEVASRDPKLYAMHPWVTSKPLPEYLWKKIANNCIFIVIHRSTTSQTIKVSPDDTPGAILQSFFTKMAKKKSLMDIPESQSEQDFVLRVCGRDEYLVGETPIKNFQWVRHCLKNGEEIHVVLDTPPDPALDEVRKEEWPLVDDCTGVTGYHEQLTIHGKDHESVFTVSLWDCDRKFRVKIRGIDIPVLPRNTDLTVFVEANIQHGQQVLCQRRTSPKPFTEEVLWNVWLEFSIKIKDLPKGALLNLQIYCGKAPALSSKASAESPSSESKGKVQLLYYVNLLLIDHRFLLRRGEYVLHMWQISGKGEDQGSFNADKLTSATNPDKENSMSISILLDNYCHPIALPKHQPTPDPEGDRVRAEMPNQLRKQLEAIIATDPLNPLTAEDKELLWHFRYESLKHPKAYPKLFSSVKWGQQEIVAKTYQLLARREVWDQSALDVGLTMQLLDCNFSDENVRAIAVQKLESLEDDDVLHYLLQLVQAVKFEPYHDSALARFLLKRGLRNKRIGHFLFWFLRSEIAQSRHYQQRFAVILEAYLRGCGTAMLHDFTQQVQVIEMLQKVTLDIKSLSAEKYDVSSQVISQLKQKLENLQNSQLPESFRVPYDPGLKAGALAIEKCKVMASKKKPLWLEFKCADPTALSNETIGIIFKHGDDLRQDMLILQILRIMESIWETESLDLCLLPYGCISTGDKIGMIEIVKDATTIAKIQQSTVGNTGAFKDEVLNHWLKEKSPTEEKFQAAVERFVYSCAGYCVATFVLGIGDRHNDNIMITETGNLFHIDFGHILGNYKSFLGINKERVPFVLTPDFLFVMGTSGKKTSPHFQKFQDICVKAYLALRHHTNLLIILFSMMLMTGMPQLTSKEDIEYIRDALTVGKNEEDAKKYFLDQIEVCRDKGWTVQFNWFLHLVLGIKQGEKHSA

Row | IC50 (PIK3CG (human)) [µM] | IC50 (PIK3CA (human)) [µM] | Structure (SMILES)
1 | 10 | – | CN1CCN(C(=O)Nc2ccc(-c3nc(N4CCOCC4)c4ccc5c(ccn5C)c4n3)cc2)CC1
2 | 2.77 | 4.28 | Cn1ccc2c3nc(-c4cccc(C#N)c4)nc(N4CCOCC4)c3ccc21
3 | 10 | – | CN(C)CCCNC(=O)Nc1ccc(-c2nc(N3CCOCC3)c3ccc4c(ccn4C)c3n2)cc1
4 | 10 | – | Cn1ccc2c3nc(-c4ccc(N)cc4)nc(N4CCOCC4)c3ccc21
5 | 4.66 | 6.31 | Cn1ccc2c3nc(-c4cccc5[nH]ccc45)nc(C4COCCN4)c3ccc21 (stereo not drawn)
6 | 7.42 | 2.56 | Cn1ccc2c3nc(-c4cccc(C(N)=O)c4)nc(N4CCOCC4)c3ccc21
7 | 9.84 | 12 | Cn1ccc2c3nc(-c4ccc(C(=O)O)cc4)nc(N4CCOCC4)c3ccc21
8 | 8.4 | 5.66 | CCCNC(=O)Nc1ccc(-c2nc(N3CCOCC3)c3ccc4c(ccn4C)c3n2)cc1
